Among the data in patent publication US20120190669A1, “OXINDOLE COMPOUNDS” (CYLENE PHARMACEUTICALS, INC., priority 2008, published 2012) are inhibition and IC50 values, retold here.

In the assay the target is recombinant PIM-1 (Homo sapiens, UniProt P11309). Nature of the assay: PIM-1 kinase assay (radiometric, 15 uM ATP, DMSO 4%). It is filed as biochemical. To be noted: for IC50: given for compounds with IC50 at or below 2 micromolar, 15 uM ATP, read-out: PIM-1 IC50. The protocol: The following procedure was used to assay the PIM-1 kinase activity of compounds of the invention. Other methods for assaying PIM-1 and other PIM kinases, as well as methods to assay for activity against the various kinases in FIG. 1, are known in the art.
recombinant PIM-1, sequence (P11309 whole entry): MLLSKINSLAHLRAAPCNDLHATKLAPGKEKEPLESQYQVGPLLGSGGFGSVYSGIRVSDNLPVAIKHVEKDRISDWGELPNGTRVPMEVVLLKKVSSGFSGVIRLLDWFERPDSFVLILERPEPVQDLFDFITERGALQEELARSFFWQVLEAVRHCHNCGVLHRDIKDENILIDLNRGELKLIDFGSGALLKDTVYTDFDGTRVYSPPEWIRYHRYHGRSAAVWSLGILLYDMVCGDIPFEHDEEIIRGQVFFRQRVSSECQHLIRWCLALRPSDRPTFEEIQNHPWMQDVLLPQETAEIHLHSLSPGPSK
(specific activity approx. 500 cpm/pmol), DMSO 4% and test inhibitor compound at the required concentration. The reaction was initiated by the addition of the Magnesium ATP mixture. After 40 min incubation at 23° C., the reactions were quenched by the addition of 100 ul 0.75% Phosphoric acid, and the labeled peptide collected by filtration through a phosphocellulose filter plate. The plate was washed 4 times with 0.075% phosphoric acid (100 ul per well) and then, after the addition of scintillation fluid (20 ul per well), the counts were measured by a scintillation counter.

Where [1] appears, read: Table 1, % inhibition at the high dose (2 micromolar) in a single screening assay, 15 μM ATP.

Structures are written as SMILES. Like-named read-outs stand apart in the source and are kept apart here.

For orientation: inhibition means the drop in the measured response relative to a control, in per cent. Consider `O=C1Nc2ccccc2/C1=C\c1ccc(-c2ccc(C(=O)NCCN3CCCC3)nc2)o1` [Compound 128], for which the inhibition at 2 µM under setting [1] stood at 27.2%.
Same read-out and setting: then `CN1CCCC(NC(=O)c2ccc(-c3ccc(/C=C4/C(=O)Nc5ccccc54)o3)cn2)C1` (stereo not shown) [Compound 129], with 1.44%; and `CCN1CCCC1CNC(=O)c1ccc(-c2ccc(/C=C3/C(=O)Nc4ccccc43)o2)cn1` (stereo not shown) [Compound 130], with 24.3%; and `CN1CCC(N(C)C(=O)c2ccc(-c3ccc(/C=C4/C(=O)Nc5ccccc54)o3)cn2)C1` (stereo not shown) [Compound 131], with 5.08%.
For orientation: IC50 means the point on the concentration scale where inhibition reaches its midpoint. Turning to `Cn1cncc1CNC(=O)c1ccc(-c2ccc(/C=C3/C(=O)Nc4ccccc43)o2)cn1` [Compound 132], the IC50 (Table 1) is < 1000 nM.
`CN1CCCCC1CNC(=O)c1ccc(-c2ccc(/C=C3/C(=O)Nc4ccccc43)o2)cn1` (stereo not shown) [Compound 133]: under setting [1], the inhibition at 2 µM was 7.61%.
The same measure, in the same setting: in the case of `CCN(CC)CCNC(=O)c1ccc(-c2ccc(/C=C3/C(=O)Nc4ccccc43)o2)cn1` [Compound 134] it was 32.4%; in that of `O=C1Nc2ccccc2/C1=C\c1ccc(-c2ccc(C(=O)NCc3ccncc3)nc2)o1` [Compound 135], 43.6%; in that of `CN1CCN(C(=O)c2ccc(-c3ccc(/C=C4/C(=O)Nc5ccccc54)o3)cn2)CC1` [Compound 136], 15.2%.
Same read-out and setting: in the case of `CN1CCCN(C(=O)c2ccc(-c3ccc(/C=C4/C(=O)Nc5ccccc54)o3)cn2)CC1` [Compound 137] it was 20.6%; in that of `CN(C)C1CCN(C(=O)c2ccc(-c3ccc(/C=C4/C(=O)Nc5ccccc54)o3)cn2)CC1` [Compound 138], 30.5%; in that of `Cc1cc(NCCN2CCCC2)c2cccc(-c3ccc(/C=C4/C(=O)Nc5ccc(Cl)cc54)o3)c2n1` [Compound 139], -23.4%.
In the case of `Cc1cnc(CNC(=O)c2ccc(-c3ccc(/C=C4/C(=O)Nc5ccc(Cl)cc54)o3)cc2)cn1` [Compound 140], the IC50 (Table 1) was < 1000 nM.
`O=C1Nc2ccc(Cl)cc2/C1=C\c1ccc(-c2cccc(C(=O)NCc3ccnc(N4CCCC4)c3)c2)o1` [Compound 141]: the inhibition at 2 µM under setting [1] is 26.3%.
Still for that read-out and setting: then `COc1cc(CNC(=O)c2cccc(-c3ccc(/C=C4/C(=O)Nc5ccc(Cl)cc54)o3)c2)ccn1` [Compound 142], with 32.7%; and `COC(=O)c1ccc(-c2ccc(/C=C3/C(=O)Nc4ccccc43)o2)c(N)c1` [Compound 143], with 30.6%.
With `Nc1cc(C(=O)NCCN2CCCC2)ccc1-c1ccc(/C=C2/C(=O)Nc3ccccc32)o1` [Compound 144], for the setting “Table 1”, the IC50 is < 1000 nM.
As for `CCOC(=O)c1cncc(-c2ccc(/C=C3/C(=O)Nc4ccc(Cl)cc43)o2)c1` [Compound 145], under setting [1], the inhibition at 2 µM came to 34.5%.
Regarding `O=C1Nc2ccc(Cl)cc2/C1=C\c1ccc(-c2cncc(C(=O)O)c2)o1` [Compound 146], under “Table 1”, the IC50 was < 2000 nM.
Regarding `O=C1Nc2ccc(Cl)cc2/C1=C\c1ccc(-c2cncc(C(=O)NCCN3CCCC3)c2)o1` [Compound 147], the IC50 (Table 1) was < 1000 nM.
As for `CN1CCCC(NC(=O)c2cncc(-c3ccc(/C=C4/C(=O)Nc5ccc(Cl)cc54)o3)c2)C1` (stereo not shown) [Compound 149], under “Table 1”, the IC50 was < 1000 nM.
The same measure, in the same setting: in the case of `CCN1CCCC1CNC(=O)c1cncc(-c2ccc(/C=C3/C(=O)Nc4ccc(Cl)cc43)o2)c1` (stereo not shown) [Compound 150] it was < 1000 nM; in that of `CCN1CCCC1CNC(=O)c1cncc(-c2ccc(/C=C3/C(=O)Nc4ccc(Cl)cc43)o2)c1` (stereo not shown) [Compound 151], < 1000 nM; in that of `CCN(CC)CCNC(=O)c1cncc(-c2ccc(/C=C3/C(=O)Nc4ccc(Cl)cc43)o2)c1` [Compound 152], < 1000 nM.
Still for that read-out and setting: then `CN1CCCN(C(=O)c2cncc(-c3ccc(/C=C4/C(=O)Nc5ccc(Cl)cc54)o3)c2)CC1` [Compound 154], with < 1000 nM; and `O=C1Nc2ccccc2/C1=C\c1ccc(-c2ccc3ccc(NCCN4CCCC4)nc3c2)o1` [Compound 155], with < 1000 nM; and `C/C(=C1\C(=O)Nc2ccccc21)c1ccc(-c2cccc(C(=O)NCCN3CCCC3)c2)o1` [Compound 156], with < 2000 nM.
Same read-out and setting: then `Cc1cc(-c2cccc(C(=O)NCCN3CCCC3)c2)oc1/C=C1/C(=O)Nc2ccccc21` [Compound 157], with < 2000 nM; and `Cc1cc(-c2cccc(C(=O)NCc3cncn3C)c2)oc1/C=C1/C(=O)Nc2ccccc21` [Compound 158], with < 2000 nM.
On to `O=C1Nc2ccccc2/C1=C\c1ccc(-c2ccc(C(=O)NCCN3CCCC3)c(F)c2)o1` [Compound 159], for which the inhibition at 2 µM under setting [1] was 11.3%.
On the same count and under the same terms, in the case of `CN1CCCN(C(=O)c2ccc(-c3ccc(/C=C4/C(=O)Nc5ccccc54)o3)cc2F)CC1` [Compound 160] it was -17.1%.
Same read-out and setting: in the case of `O=C1Nc2ccccc2/C1=C\c1ccc(-c2ccc(C(=O)NCCCn3ccnc3)c(F)c2)o1` [Compound 161] it was 28.4%.
Consider `O=C1Nc2ccccc2/C1=C\c1ccc(-c2ccccc2O)o1` [Compound 162], for which the IC50 (Table 1) was < 2000 nM.
Same read-out and setting: then `O=C1Nc2ccccc2/C1=C\c1ccc(-c2cccc(CO)c2)o1` [Compound 163], with < 2000 nM.
Still for that read-out and setting: in the case of `O=C1Nc2ccccc2/C1=C\c1ccc(-c2ccc(CO)cc2)o1` [Compound 164] it was < 2000 nM.
In the case of `NCc1cccc(-c2ccc(/C=C3/C(=O)Nc4ccccc43)o2)c1` [Compound 165], the inhibition at 2 µM under setting [1] came to 19.4%.
Regarding `NC(=O)c1cccc(-c2ccc(/C=C3/C(=O)Nc4ccccc43)o2)c1` [Compound 166], the IC50 (Table 1) was < 1000 nM.
Take `O=C1Nc2ccccc2/C1=C\c1ccc(-c2cccc(C(=O)Nc3nccs3)c2)o1` [Compound 167]: under setting [1], the inhibition at 2 µM is -3.02%.
With `CCC(=O)Nc1cc(C(=O)NCCN2CCCC2)ccc1-c1ccc(/C=C2/C(=O)Nc3ccccc32)o1` [Compound 168], the inhibition at 2 µM is -14.9%.
With `CCCC(=O)Nc1cc(C(=O)NCCN2CCCC2)ccc1-c1ccc(/C=C2/C(=O)Nc3ccccc32)o1` [Compound 169], the inhibition at 2 µM under setting [1] is -29.9%.
The same measure, in the same setting: then `O=C1Nc2ccccc2/C1=C\c1ccc(-c2ccc(C(=O)O)c(O)c2)o1` [Compound 170], with 43%; and `CN(CCc1ccccn1)C(=O)c1cccc(-c2ccc(/C=C3/C(=O)Nc4ccc(Cl)cc43)o2)c1` [Compound 171], with -0.11%.
The same measure, in the same setting: then `O=C1Nc2ccc(Cl)cc2/C1=C\c1ccc(-c2cccc(C(=O)NCCc3ccccn3)c2)o1` [Compound 172], with 29.3%.
On the same count and under the same terms, then `CCN(CC)C(=O)c1cccc(-c2ccc(/C=C3/C(=O)Nc4ccc(Cl)cc43)o2)c1` [Compound 173], with 29.2%.
On to `O=C1Nc2ccc(Cl)cc2/C1=C\c1ccc(-c2cccc(C(=O)NC3=NCCS3)c2)o1` [Compound 174], for which, where the note is “Table 1”, the IC50 was < 1000 nM.
Consider `CN(C)C(=O)c1cccc(-c2ccc(/C=C3/C(=O)Nc4ccc(Cl)cc43)o2)c1` [Compound 175], for which the inhibition at 2 µM under setting [1] turned out to be 21.2%.
Still for that read-out and setting: in the case of `CON(C)C(=O)c1cccc(-c2ccc(/C=C3/C(=O)Nc4ccc(Cl)cc43)o2)c1` [Compound 176] it was -59.6%.
Still for that read-out and setting: in the case of `CN(C)c1ccc(CNC(=O)c2cccc(-c3ccc(/C=C4/C(=O)Nc5ccc(Cl)cc54)o3)c2)cc1` [Compound 177] it was 10.9%; in that of `O=C1Nc2ccc(Cl)cc2/C1=C\c1ccc(-c2cccc(C(=O)N3CCCC(O)C3)c2)o1` (stereo not shown) [Compound 178], -19.4%; in that of `O=C1Nc2ccc(Cl)cc2/C1=C\c1ccc(-c2cccc(C(=O)NCCc3ccc(O)cc3)c2)o1` [Compound 179], 18.4%.
As for `O=C1Nc2ccc(Cl)cc2/C1=C\c1ccc(-c2cccc(C(=O)NCC(O)c3ccccc3)c2)o1` (stereo not shown) [Compound 180], the IC50 (Table 1) is < 1000 nM.
For the molecule `CC(C)(C)OC(=O)Nc1cccc(-c2ccc(/C=C3/C(=O)Nc4ccccc43)o2)c1` [Compound 181], the inhibition at 2 µM under setting [1] is 14.5%.
Consider `O=C1Nc2ccccc2/C1=C\c1ccc(-c2ccc(C(=O)NCCN3CCCC3)c(O)c2)o1` [Compound 182], for which, for the setting “Table 1”, the IC50 is < 2000 nM.
Same read-out and setting: then `Nc1cccc(-c2ccc(/C=C3/C(=O)Nc4ccccc43)o2)c1` [Compound 183], with < 2000 nM.
As for `O=C(CCN1CCCC1)Nc1cccc(-c2ccc(/C=C3/C(=O)Nc4ccccc43)o2)c1` [Compound 184], where the note is “Table 1”, the IC50 was < 1000 nM.
Same read-out and setting: then `CCN(CC)CCC(=O)Nc1cccc(-c2ccc(/C=C3/C(=O)Nc4ccccc43)o2)c1` [Compound 185], with < 1000 nM; and `O=C(CN1CCCC1)Nc1cccc(-c2ccc(/C=C3/C(=O)Nc4ccccc43)o2)c1` [Compound 186], with < 1000 nM; and `CCN(CC)CC(=O)Nc1cccc(-c2ccc(/C=C3/C(=O)Nc4ccccc43)o2)c1` [Compound 187], with < 1000 nM.
Same read-out and setting: then `O=C1Nc2ccc(Cl)cc2/C1=C\c1ccc(-c2cccc(C(=O)NCC(O)c3ccccn3)c2)o1` (stereo not shown) [Compound 188], with < 1000 nM; and `O=C1Nc2ccc(Cl)cc2/C1=C\c1ccc(-c2cccc(C(=O)NCC(O)c3cccnc3)c2)o1` (stereo not shown) [Compound 189], with < 1000 nM.
As for `O=C1Nc2ccc(Cl)cc2/C1=C\c1ccc(-c2cccc(C(=O)NCC(O)c3ccncc3)c2)o1` (stereo not shown) [Compound 190], the IC50 (Table 1) was < 1000 nM.
Regarding `O=C1Nc2ccc(Cl)cc2/C1=C\c1ccc(-c2cccc(C(=O)NCCN(CCO)CCO)c2)o1` [Compound 193], under “Table 1”, the IC50 is < 1000 nM.
The same measure, in the same setting: then `C/C(=C1\C(=O)Nc2ccc(Cl)cc21)c1ccc(-c2ccc(C(=O)N3CCCN(C)CC3)cc2)o1` [Compound 195], with < 1000 nM; and `CN1CCCN(C(=O)c2ccc(-c3ccc(/C=C4/C(=O)Nc5ccc(Cl)cc54)o3)cc2)CC1` [Compound 196], with < 1000 nM.
